Data taken from a melting point compilation (Tetko et al.; mined from patent text by program, amines drawn as free bases though some values may be those of a salt).

Row | Structure (SMILES) | melting point
1 | CNC(=S)C1(c2cccnc2)CCCS1 (stereo not drawn) | 133 °C
2 | O=C(O)Cc1cccc2c(-c3ccc(Cl)cc3)onc12 | 200 to 202 °C
3 | CNC(=O)C(NC(=O)C(CC(=O)O)N1C=CN(c2ccc(-c3ccccc3)cc2)C1)C(C)(C)C (mixture of isomers) | 187 to 188 °C
4 | CC(C)c1cccc(C(C)C)c1NC(=O)CNC(c1ccccc1)c1cccs1 (stereo not drawn) | 164 to 166 °C
5 | CC(C)(C)NNC(=O)c1cccc(Cl)c1 | 116 to 118 °C
6 | CCCCNC(=O)NC(=O)c1cc([N+](=O)[O-])cnc1C | 111 to 112 °C
7 | CN(C)CCCCC(=O)NC(Cc1c[nH]c2ccccc12)C(=O)CCc1cc(C(F)(F)F)cc(C(F)(F)F)c1 (stereo not drawn) | 140 °C
8 | CC(C)(C)OC(=O)N1C(=O)[C@H](O)[C@@H]1C=Cc1ccccc1 | 132 to 133 °C
9 | CCCNC(=O)N1C2=NC(C)(C)N(C)C(=O)N2c2ccccc21 | 85 to 87 °C
10 | Cc1nc(CS(=O)(=O)c2cccs2)sc1-c1ccnc(Nc2ccc(N3CCOCC3)cc2)n1 | 187 to 189 °C
11 | N#CC1c2ccccc2Oc2cc(O)cc(O)c21 (stereo not drawn) | 211 to 215 °C
12 | COP1(=O)CC(O)C(Cl)C1 (stereo not drawn) | 82 °C
13 | CS(=O)(=O)c1ccc(/C=C/c2nc3ccccc3n2-c2ccccn2)cc1 | 152 to 154 °C
14 | C[C@@H](C[C@H](N)C(=O)O)C(=O)O | 163 to 164 °C
15 | O=C(O)c1cn(C2CC2)c2cc(-c3ccncc3)ccc2c1=O | 278 to 281 °C
16 | COc1ccc(Br)cc1O | 62 to 64 °C
17 | CN=C1SC(=NOC(=O)NC)C(C)(C)S1 | 68 to 70 °C
18 | COC(=O)c1cc(OC)cc(C(=O)OC)c1 | 108 to 109 °C
19 | O=C1NCC(CO)C1(c1ccccc1)c1ccccc1 (stereo not drawn) | 145 to 148 °C
20 | CC(=O)OCCNc1nnc(-c2ccccc2)cc1C | 127 °C
21 | Cc1ccc(S(=O)(=O)NC(CC(N)=O)C(=O)O)cc1 (stereo not drawn) | 198 to 200 °C
22 | CCc1cn(C2CC(OC(C)=O)C(CN(C)C(=O)Cc3ccccc3Br)O2)c(=O)[nH]c1=O (stereo not drawn) | 170 °C
23 | COC(=O)C1CCC2C3CCC4CC5OC5CC4(C)C3C(NC(=O)OCC(Cl)(Cl)Cl)CC12C (stereo not drawn) | 153 to 155 °C

Row | Structure (SMILES) | melting point
24 | Fc1ccc2c(c1)NCc1c(-c3noc(C4CC4)n3)ncn1-2 | 263 to 265 °C
25 | O=C(N[C@@H](Cc1ccccc1)[C@@H](O)[C@H](O)[C@H](Cc1ccccc1)NC(=O)OCc1cccnc1)OCc1cccnc1 | 180 to 186 °C
26 | O=C(OC(=O)c1ccc([N+](=O)[O-])cc1S(=O)(=O)O)c1ccc([N+](=O)[O-])cc1S(=O)(=O)O | 110 to 116 °C
27 | CCOCCOc1ccc(CN/C=C2\C(=O)NC(=O)c3ccc(Br)cc32)cc1O | 179 to 180 °C
28 | COc1cc(C)c2[nH]ccc2c1C(N)(c1nc2cc(C#N)ccc2[nH]1)C(F)(F)F (single isomer, unassigned; (-)) | 255 °C
29 | C=CC(C)(C)c1c(C=O)c2ccc(Cl)cc2n1COCc1ccccc1 | 227 °C
30 | CCOc1ccc(-c2c(C(=O)OC)c(C(=O)OC)c(O)c3cc(OC)c(OC)c(OC)c23)cc1OC | 159 °C
31 | CC(=O)OC(C(C)C(C)C)C(OC(C)=O)C(C)C1CCC2C3CC(=O)C4CC=CCC4(C)C3CCC12C (stereo not drawn) | 210 to 213 °C
32 | CCCCCCCCCCCCCCOC(=O)c1cc(Cl)c(N2N=C(Nc3cc(N4CCCC4=O)ccc3Cl)CC2=O)c(Cl)c1 | 143 to 146 °C
33 | CC1CCCCN1CCC(CCN(C(C)C)C(C)C)(C(N)=O)c1ccccc1F (stereo not drawn) | 90 to 91 °C
34 | O=C(Nc1ccccc1)c1sc2c([N+](=O)[O-])c(O)c(O)cc2c1Cl | 288 °C
35 | NC(=O)c1ccnc(OCc2nc3cc(Cl)ccc3s2)c1 | 220 to 222 °C
36 | O=[N+]([O-])C=Cc1ccc(O)c(Cl)c1 | 127 to 129 °C
37 | COC(=O)c1c(F)cc(OCCNC(=O)C2Cc3ccccc3N2S(=O)(=O)c2ccc(-c3ccc(F)cc3F)cc2)cc1F (stereo not drawn) | 69 to 77 °C
38 | CCCNC(=O)C1(CCCCP(=O)(c2ccccc2)c2ccccc2)c2ccccc2-c2ccccc21 | 163 to 165 °C
39 | Cc1ccc(N(CCN2CCC(C(=O)c3ccc(F)cc3)CC2)C(=O)c2cccc([N+](=O)[O-])c2)cc1 | 131 to 134 °C
40 | CC(CO)(Sc1cc2cc(O)ccc2[nH]1)c1ccccc1 (stereo not drawn) | 143 to 145 °C
41 | CN1CCOc2ccc(S(=O)(=O)n3c(Cc4ccc(C(=O)O)s4)cc4cc(C(F)(F)F)ccc43)cc21 | 120 to 144 °C
42 | CCC(O)(c1ccc(OCCN2CCOCC2)cc1)c1cccc(C(F)(F)F)c1 (stereo not drawn) | 73 to 74 °C
43 | CON=C(C#CC(=O)c1ccc(Cl)cc1)C(=O)OC | 172 to 173 °C
44 | O=c1oc(-c2ccccc2)cc(O)c1C(Sc1ccccc1)C1CCCCC1 (stereo not drawn) | 87 to 90 °C
45 | CCCCn1cc(C(=O)Nc2nccs2)c2ccc(Cl)cc21 | 168 to 169 °C
46 | O=C1CCC(N2Cc3c(OCc4ccc(CN5CCS(=O)CC5)cc4)cccc3C2=O)C(=O)N1 (stereo not drawn) | 170 to 172 °C

Row | Structure (SMILES) | melting point
47 | N#Cc1cccc(C2=Nc3ccc(C#Cc4ccccc4F)cc3NC(=O)C2)c1 | 213 to 214 °C
48 | C#Cc1cc2c(cc1C=O)C(C)(C)CCC2(C)C | 94 to 94.6 °C
49 | COC(=O)c1ccc2c(c1C)SCCC2(C)C | 63 °C
50 | CCC1(CC)COP(=O)(Cc2ccc([N+](=O)[O-])cc2)OC1 | 159 to 160 °C
51 | CCOc1ccc(S(=O)(=O)N2CCN(C)CC2)cc1C(=O)OC | 110 to 111 °C
52 | CN1CCC2(CC1)Nc1ccccc1S2 | 135 to 140 °C
53 | Cc1nn(-c2ccccn2)cc1COc1ccc(CO)cc1 | 83 to 84 °C
54 | O=C(NCC(F)(F)F)C1(CCCCc2ccc(NS(=O)(=O)c3ccccc3[N+](=O)[O-])cc2)c2ccccc2-c2ccccc21 | 60 to 64 °C
55 | Cc1ccc2c(c1)N(CC(=O)c1ccccc1C)C(=O)C(NC(=O)Nc1cccc(C(=O)O)c1)CN2C(=O)C(C)C (stereo not drawn) | 162 to 165 °C
56 | CCN(CC)c1ncnc2nc(-c3ccncc3)[nH]c12 | 260 to 262 °C
57 | COc1ccc(C(=O)C2=C(O)C(=O)N(c3ccc(C)nn3)C2c2ccc(OC(F)(F)F)cc2)cn1 (stereo not drawn) | 250 to 251 °C
58 | CC1=NC(NC(=O)Nc2cccc(C)c2)C(=O)N(CC(=O)N2CCN(CCO)CC2)c2c(C)cccc21 (stereo not drawn) | 222 to 224 °C
59 | C#CCOc1cc2c(cc1F)CCC2CCNC(=O)CC (stereo not drawn) | 78 to 81 °C
60 | CCCOc1ccc(-c2ccc3c(c2)C=C(C(=O)OC)CCN3C=O)cc1 | 152 to 153 °C
61 | CC(C)n1c(=O)ccc2cnc(Nc3cccnc3)nc21 | 156 to 158 °C
62 | CCOC(=O)CCCC1Sc2ccccc2NC1=O (stereo not drawn) | 78 to 79 °C
63 | O=Cc1c(-c2cccnc2)[nH]c2ccccc12 | 148 to 150 °C
64 | COc1ccc(C2(C#Cc3cccc(C(=O)O)c3)CCCC(=O)C2)cc1OC1CCCC1 (stereo not drawn) | 71 to 73 °C
65 | CC1(C)CC(=O)c2c(C3CC3)sc(-c3nccs3)c2C1 | 103 to 105 °C
66 | CC(=O)[C@@H]1C[C@H](C(=O)OC(C)(C)C)N(C(=O)CNC(=O)Nc2cccc(C)c2)[C@@H]1c1ccccc1 (racemic) | 100 °C
67 | O=C(Nc1ccc2oc(=O)[nH]c2c1)C(=O)N1CCC(Cc2ccccc2)CC1 | 187 to 190 °C
68 | CN1CCN(c2cc(Cl)nc(-c3ccccc3)n2)CC1 | 91 to 92.5 °C
